From ChEMBL document CHEMBL1155947, “Discovery of a novel series of benzoic acid derivatives as potent and selective human beta3 adrenergic receptor agonists with good oral bioavailability. 3. Phenylethanolaminotetraline (PEAT) skeleton containing biphenyl or biphenyl ether moiety” (J Med Chem, 2008)

Experiments:
[1] = Cmax in monkey at 1.0 mg/kg, po by cassette assay; assay type: ADME, organism-based, Macaca mulatta; parameters: dose 1 mg/kg, route oral; details: rhesus monkey, in vivo
[2] = Total clearance in monkey at 0.32 mg/kg, iv by cassette assay; assay type: ADME, organism-based, Macaca mulatta; parameters: dose 0.32 mg/kg, route intravenous; details: rhesus monkey, in vivo
[3] = Cmax in rat at 1.0 mg/kg, po by cassette assay; assay type: ADME, organism-based; parameters: dose 1 mg/kg, route oral; details: in vivo
[4] = Total clearance in dog at 0.1 mg/kg, iv by cassette assay; assay type: ADME, organism-based, Canis lupus familiaris; parameters: dose 0.1 mg/kg, route intravenous; details: in vivo
[5] = biological target: Beta-3 adrenergic receptor (Canis lupus familiaris, UniProt O02662); assay: Agonist activity at dog beta3 adrenergic receptor expressed in CHO cells assessed as cAMP accumulation; assay type: functional, cell-based
Sequence of Beta-3 adrenergic receptor (Canis lupus familiaris, UniProt O02662) (O02662 whole entry): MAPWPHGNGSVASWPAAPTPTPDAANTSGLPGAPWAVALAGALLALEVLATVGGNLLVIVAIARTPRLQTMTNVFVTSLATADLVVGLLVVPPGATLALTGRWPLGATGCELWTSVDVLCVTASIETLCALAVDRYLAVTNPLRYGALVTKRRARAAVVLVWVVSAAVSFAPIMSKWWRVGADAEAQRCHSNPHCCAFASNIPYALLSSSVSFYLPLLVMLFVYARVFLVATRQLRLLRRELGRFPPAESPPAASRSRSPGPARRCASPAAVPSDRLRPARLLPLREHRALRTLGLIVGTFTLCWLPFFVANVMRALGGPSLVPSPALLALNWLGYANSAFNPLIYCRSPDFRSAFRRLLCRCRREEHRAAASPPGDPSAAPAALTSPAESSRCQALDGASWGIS

[6] = Terminal half life in rat at 0.51 mg/kg, iv by cassette assay; assay type: ADME, organism-based; parameters: dose 0.51 mg/kg, route intravenous; details: in vivo
[7] = AUC (0 to 24 hrs) in dog at 0.2 mg/kg, po by cassette assay; assay type: ADME, organism-based, Canis lupus familiaris; parameters: time < 24 hr, dose 0.2 mg/kg, route oral; details: plasma
[8] = test system: Canis familiaris; assay: Ratio of Cmax for drug to Cmax for 3-[((7S)-7-{[(2R)-2-(3-Chlorophenyl)-2-hydroxyethyl]amino}-5,6,7,8-tetrahydro-2-naphthalenyl)oxy]benzoic acid hydrochloride in dog at 0.1 or 0.20 mg/kg, po by cassette dosing assay; assay type: ADME, organism-based, Canis lupus familiaris; parameters: dose 0.2 mg/kg, route oral; details: in vivo, 0.2 mg/kg
[9] = Terminal half life in dog at 0.1 mg/kg, iv by cassette assay; assay type: ADME, organism-based, Canis lupus familiaris; parameters: dose 0.1 mg/kg, route intravenous; details: in vivo
[10] = Selectivity for human beta3 adrenergic receptor over dog beta3 adrenergic receptor
[11] = test system: Canis familiaris; assay: Ratio of AUC for drug to AUC for 3-[((7S)-7-{[(2R)-2-(3-Chlorophenyl)-2-hydroxyethyl]amino}-5,6,7,8-tetrahydro-2-naphthalenyl)oxy]benzoic acid hydrochloride in dog at 0.1 or 0.20 mg/kg, po by cassette dosing assay; assay type: ADME, organism-based, Canis lupus familiaris; parameters: dose 0.2 mg/kg, route oral; details: in vivo, 0.2 mg/kg
[12] = Protein binding in Beagle dog serum at 32 ug/kg, iv; assay type: ADME, organism-based, Canis lupus familiaris; details: 0.032 mg/kg, read-out: PB (converted)
[13] = Oral bioavailability in dog at 0.1 mg/kg by cassette assay; assay type: ADME, organism-based, Canis lupus familiaris; details: in vivo
[14] = Total clearance in rat at 0.51 mg/kg, iv by cassette assay; assay type: ADME, organism-based; parameters: dose 0.51 mg/kg, route intravenous; details: in vivo
[15] = Cmax in dog at 0.2 mg/kg, po by cassette assay; assay type: ADME, organism-based, Canis lupus familiaris; parameters: dose 0.2 mg/kg, route oral; details: in vivo
[16] = AUC (0 to 24 hrs) in rat at 1.0 mg/kg, po by cassette assay; assay type: ADME, organism-based; parameters: time < 24 hr, dose 1 mg/kg, route oral; details: plasma
[17] = Oral bioavailability in rat at 0.51 mg/kg by cassette assay; assay type: ADME, organism-based; details: in vivo
[18] = AUC (0 to 24 hrs) in monkey at 1.0 mg/kg, po by cassette assay; assay type: ADME, organism-based, Macaca mulatta; parameters: time < 24 hr, dose 1 mg/kg, route oral; details: rhesus monkey, plasma
[19] = biological target: Beta-3 adrenergic receptor (Homo sapiens, UniProt P13945); assay: Agonist activity at human cloned beta3 adrenergic receptor expressed in CHO cells assessed as cAMP accumulation; assay type: functional, cell-based
Sequence of Beta-3 adrenergic receptor (Homo sapiens, UniProt P13945) (P13945 whole entry): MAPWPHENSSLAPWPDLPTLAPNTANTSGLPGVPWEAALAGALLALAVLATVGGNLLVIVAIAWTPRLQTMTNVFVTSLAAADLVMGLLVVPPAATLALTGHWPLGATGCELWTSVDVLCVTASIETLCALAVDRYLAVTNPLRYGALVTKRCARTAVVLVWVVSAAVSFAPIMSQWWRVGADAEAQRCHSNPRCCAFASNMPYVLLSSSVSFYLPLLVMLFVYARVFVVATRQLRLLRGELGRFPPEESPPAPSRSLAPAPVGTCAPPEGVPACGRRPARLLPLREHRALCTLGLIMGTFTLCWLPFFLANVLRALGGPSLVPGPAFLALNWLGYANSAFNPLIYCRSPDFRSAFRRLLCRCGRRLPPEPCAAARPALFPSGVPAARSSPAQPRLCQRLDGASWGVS

[20] = Terminal half life in monkey at 0.32 mg/kg, iv by cassette assay; assay type: ADME, organism-based, Macaca mulatta; parameters: dose 0.32 mg/kg, route intravenous; details: rhesus monkey, in vivo
[21] = biological target: Beta-2 adrenergic receptor (Homo sapiens, UniProt P07550); assay: Agonist activity at human beta2 adrenergic receptor expressed in CHO cells assessed as cAMP accumulation; assay type: functional, cell-based
Sequence of Beta-2 adrenergic receptor (P07550 whole entry): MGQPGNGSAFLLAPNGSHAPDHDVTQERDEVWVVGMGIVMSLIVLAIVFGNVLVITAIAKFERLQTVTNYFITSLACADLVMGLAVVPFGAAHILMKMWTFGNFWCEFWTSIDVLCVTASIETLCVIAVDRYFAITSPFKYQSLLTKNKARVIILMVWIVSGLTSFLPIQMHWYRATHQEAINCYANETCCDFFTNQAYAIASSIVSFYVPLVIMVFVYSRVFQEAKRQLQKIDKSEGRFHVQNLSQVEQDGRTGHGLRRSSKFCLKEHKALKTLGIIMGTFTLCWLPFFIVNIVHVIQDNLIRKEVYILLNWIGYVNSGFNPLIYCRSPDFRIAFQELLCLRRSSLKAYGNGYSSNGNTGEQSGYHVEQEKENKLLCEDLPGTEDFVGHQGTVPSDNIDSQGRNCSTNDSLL

[22] = biological target: Beta-1 adrenergic receptor (Homo sapiens, UniProt P08588)
Sequence of Beta-1 adrenergic receptor (P08588 whole entry): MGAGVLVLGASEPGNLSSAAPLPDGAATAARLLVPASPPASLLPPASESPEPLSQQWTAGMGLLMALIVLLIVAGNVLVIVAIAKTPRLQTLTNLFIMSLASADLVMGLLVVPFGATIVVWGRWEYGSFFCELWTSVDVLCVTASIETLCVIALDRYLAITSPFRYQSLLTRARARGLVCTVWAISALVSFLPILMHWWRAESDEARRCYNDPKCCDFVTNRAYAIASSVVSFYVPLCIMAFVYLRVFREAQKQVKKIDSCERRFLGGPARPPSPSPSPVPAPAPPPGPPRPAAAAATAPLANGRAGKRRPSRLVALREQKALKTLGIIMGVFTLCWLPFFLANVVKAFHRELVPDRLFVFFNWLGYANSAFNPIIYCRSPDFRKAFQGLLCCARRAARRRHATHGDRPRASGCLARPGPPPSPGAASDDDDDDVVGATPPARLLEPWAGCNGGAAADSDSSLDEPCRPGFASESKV
Description: Agonist activity at human cloned beta-1 adrenergic receptor expressed in CHO cells assessed as cAMP accumulation

[23] = Oral bioavailability in monkey at 0.32 mg/kg by cassette assay; assay type: ADME, organism-based, Macaca mulatta; details: rhesus monkey, in vivo
[24] = test system: Canis familiaris; assay: Inhibition of carbachol-induced increase of intravesical pressure in Beagle dog OAB model at 32 ug/kg,; assay type: functional; details: Canis lupus familiaris
[25] = species on record: Homo sapiens; assay: Ratio of EC50 for human cloned beta-1 adrenergic receptor to EC50 for human cloned beta3 adrenergic receptor

## COc1ccc(Oc2ccc3c(c2)C[C@@H](NC[C@H](O)c2ccc(Cl)nc2)CC3)cc1C(=O)O
[1]
  Cmax: 59 ng/mL
[2]
  clearance: 15.7 mL/min/kg
[3]
  Cmax: 164 ng/mL
[4]
  clearance: 3.1 mL/min/kg
[5]
  EC50: 46 nM
[6]
  half-life: 918 min
[7]
  AUC(0-t) at 24 h: 860 ng·h/mL
[8]
  Ratio: 0.5
[9]
  half-life: 354 min
[10]
  Selectivity ratio: 12.8
[11]
  Ratio AUC: 0.48
[12]
  fraction unbound: 0.1
[13]
  bioavailability: 76.8%
[14]
  clearance: 2.5 mL/min/kg
[15]
  Cmax: 64.4 ng/mL
[16]
  AUC(0-t) at 24 h: 1940 ng·h/mL
[17]
  bioavailability: 27.3%
[18]
  AUC(0-t) at 24 h: 313 ng·h/mL
[19]
  EC50: 3.6 nM
[20]
  half-life: 492 min
[21]
  EC50: > 1000 nM
[22]
  EC50: > 1000 nM
[23]
  bioavailability: 28.8%
[24]
  inhibition in vivo at 0.032 mg/kg: 57%
[25]
  Ratio EC50: > 277
